Assay results taken from PubChem BioAssay (NCI).
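In this assay, cells in 96-well plates receive the compound at five concentrations for 48 hours. Endpoints are linearly interpolated between the surrounding concentrations. GI50: concentration for 50% inhibition of growth. TGI: concentration producing complete growth inhibition.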

Assays:
Test in all cases: NCI-60 cell line screen, 48 h
[1] = test system: IGROV1 ovarian
[2] = test system: MDA-MB-231 breast
[3] = test system: SK-MEL-5 melanoma
[4] = test system: OVCAR-5 ovarian
[5] = test system: 786-0 renal
[6] = test system: TK-10 renal
[7] = test system: SK-MEL-28 melanoma
[8] = test system: SW-620 colon
[9] = test system: K-562 leukemia
[10] = test system: HCT-15 colon
[11] = test system: EKVX NSCLC
[12] = test system: T-47D breast
[13] = test system: UO-31 renal
[14] = test system: OVCAR-8 ovarian
[15] = test system: CAKI-1 renal
[16] = test system: SF-295 CNS
[17] = test system: COLO 205 colon
[18] = test system: SNB-19 CNS
[19] = test system: NCI-H226 lung
[20] = test system: OVCAR-4 ovarian
[21] = test system: HCC-2998 colon
[22] = test system: HOP-62 NSCLC
[23] = test system: SF-268 CNS
[24] = test system: UACC-62 melanoma
[25] = test system: SNB-75 CNS
[26] = test system: MOLT-4 leukemia
[27] = test system: NCI-H23 lung
[28] = test system: HT29 colon
[29] = test system: HOP-92 NSCLC
[30] = test system: A549 NSCLC
[31] = test system: NCI-H460 lung
[32] = test system: A498 renal
[33] = test system: SK-OV-3 ovarian
[34] = test system: MCF7 breast
[35] = test system: KM12 colon
[36] = test system: U251 CNS
[37] = test system: RXF 393 renal
[38] = test system: ACHN renal
[39] = test system: SR leukemia
[40] = test system: MDA-MB-435
[41] = test system: NCI/ADR-RES ovarian
[42] = test system: PC-3 prostate
[43] = test system: NCI-H522 lung
[44] = test system: SK-MEL-2 melanoma
[45] = test system: HCT-116 colon
[46] = test system: M14 melanoma
[47] = test system: RPMI-8226 leukemia
[48] = test system: OVCAR-3 ovarian
[49] = test system: CCRF-CEM leukemia
[50] = test system: UACC-257 melanoma
[51] = test system: HL-60(TB) leukemia
[52] = test system: DU-145 prostate
[53] = test system: MALME-3M melanoma
[54] = test system: SN12C renal
[55] = test system: BT-549 breast
[56] = test system: SF-539 CNS
[57] = test system: HS 578T breast
[58] = test system: LOX IMVI melanoma
[59] = test system: MDA-N

NC(CS/C(Cl)=C/Cl)C(=O)O (configuration not stated)
GI50 [1]: > 100 µM
TGI [1]: > 100 µM
GI50 [2]: > 100 µM
TGI [2]: > 100 µM
GI50 [3]: 3.11 µM
TGI [3]: 12.9 µM
GI50 [4]: > 100 µM
TGI [4]: > 100 µM
GI50 [5]: > 100 µM
TGI [5]: > 100 µM
GI50 [6]: > 100 µM
TGI [6]: > 100 µM
GI50 [7]: 43.6 µM
TGI [7]: > 100 µM
GI50 [8]: 39.8 µM
TGI [8]: > 100 µM
GI50 [9]: 33.4 µM
TGI [9]: > 100 µM
GI50 [10]: 28.7 µM
TGI [10]: > 100 µM
GI50 [11]: 31.7 µM
TGI [11]: > 100 µM
GI50 [12]: 2.68 µM
TGI [12]: 15.2 µM
GI50 [13]: 54.8 µM
TGI [13]: > 100 µM
GI50 [14]: 24.1 µM
TGI [14]: > 100 µM
GI50 [15]: 72.5 µM
TGI [15]: > 100 µM
GI50 [16]: 3.17 µM
TGI [16]: 12.3 µM
GI50 [17]: 26.6 µM
TGI [17]: > 69.7 µM
GI50 [18]: 30.7 µM
TGI [18]: > 100 µM
GI50 [19]: > 100 µM
TGI [19]: > 100 µM
GI50 [20]: 38.3 µM
TGI [20]: > 100 µM
GI50 [21]: 68.8 µM
TGI [21]: > 100 µM
GI50 [22]: 4.64 µM
TGI [22]: 29.3 µM
GI50 [23]: > 76.5 µM
TGI [23]: > 100 µM
GI50 [24]: 57 µM
TGI [24]: > 100 µM
GI50 [25]: > 75.9 µM
TGI [25]: > 100 µM
GI50 [26]: 41.9 µM
TGI [26]: > 100 µM
GI50 [27]: 56.5 µM
TGI [27]: > 100 µM
GI50 [28]: 54.7 µM
TGI [28]: > 100 µM
GI50 [29]: 33.2 µM
TGI [29]: > 100 µM
GI50 [30]: 1.69 µM
TGI [30]: 6.98 µM
GI50 [31]: 0.427 µM
TGI [31]: 2 µM
GI50 [32]: 8.7 µM
TGI [32]: 33.8 µM
GI50 [33]: > 100 µM
TGI [33]: > 100 µM
GI50 [34]: 4.03 µM
TGI [34]: > 100 µM
GI50 [35]: 67.3 µM
TGI [35]: > 100 µM
GI50 [36]: > 61 µM
TGI [36]: > 100 µM
GI50 [37]: > 44.6 µM
TGI [37]: > 87.2 µM
GI50 [38]: 78.9 µM
TGI [38]: > 100 µM
GI50 [39]: 34.9 µM
TGI [39]: > 100 µM
GI50 [40]: 9.25 µM
TGI [40]: 31.5 µM
GI50 [41]: 31.8 µM
TGI [41]: > 100 µM
GI50 [42]: 34.3 µM
TGI [42]: > 100 µM
GI50 [43]: > 55.6 µM
TGI [43]: > 100 µM
GI50 [44]: 22.2 µM
TGI [44]: > 100 µM
GI50 [45]: 34.6 µM
TGI [45]: > 100 µM
GI50 [46]: 8.19 µM
TGI [46]: > 68.3 µM
GI50 [47]: 12.5 µM
TGI [47]: 74.5 µM
GI50 [48]: 49.2 µM
TGI [48]: > 100 µM
GI50 [49]: 20.3 µM
TGI [49]: > 100 µM
GI50 [50]: 23.3 µM
TGI [50]: 78.8 µM
GI50 [51]: 51.7 µM
TGI [51]: > 100 µM
GI50 [52]: 16.5 µM
TGI [52]: > 100 µM
GI50 [53]: 62.4 µM
TGI [53]: > 100 µM
GI50 [54]: 43.3 µM
TGI [54]: > 100 µM
GI50 [55]: 12.1 µM
TGI [55]: > 64.1 µM
GI50 [56]: > 100 µM
TGI [56]: > 100 µM
GI50 [57]: 55.1 µM
TGI [57]: > 100 µM
GI50 [58]: 1.02 µM
TGI [58]: 4.34 µM

CCCCCC(=O)NC(=S)Nc1nn[nH]n1
TGI [1]: > 100 µM
TGI [2]: > 100 µM
TGI [3]: > 100 µM
TGI [4]: > 100 µM
TGI [5]: > 100 µM
TGI [6]: > 100 µM
TGI [7]: > 100 µM
TGI [8]: > 100 µM
TGI [9]: > 100 µM
TGI [10]: > 100 µM
TGI [11]: > 100 µM
TGI [12]: > 100 µM
TGI [13]: > 100 µM
TGI [15]: > 100 µM
TGI [16]: > 100 µM
TGI [17]: > 100 µM
TGI [18]: > 100 µM
TGI [20]: > 100 µM
TGI [21]: > 100 µM
TGI [22]: > 100 µM
TGI [23]: > 100 µM
TGI [24]: > 100 µM
TGI [25]: > 100 µM
TGI [26]: > 100 µM
TGI [27]: > 100 µM
TGI [29]: > 100 µM
TGI [30]: > 100 µM
TGI [31]: > 100 µM
TGI [32]: > 100 µM
TGI [33]: > 100 µM
TGI [34]: > 100 µM
TGI [35]: > 100 µM
TGI [36]: > 100 µM
TGI [37]: > 100 µM
TGI [39]: > 100 µM
TGI [40]: > 100 µM
TGI [42]: > 100 µM
TGI [43]: > 100 µM
TGI [44]: > 100 µM
TGI [45]: > 100 µM
TGI [46]: > 100 µM
TGI [47]: > 100 µM
TGI [48]: > 100 µM
TGI [49]: > 100 µM
TGI [50]: > 100 µM
TGI [51]: > 100 µM
TGI [52]: > 100 µM
TGI [53]: > 100 µM
TGI [54]: > 100 µM
TGI [56]: > 100 µM
TGI [57]: > 100 µM
TGI [58]: > 100 µM
TGI [59]: > 100 µM

CCc1ccc2oc(-c3cc(O)c(-c4nc5cc(CC)ccc5o4)cc3O)nc2c1
TGI [1]: > 100 µM
TGI [2]: > 100 µM
TGI [3]: > 100 µM
TGI [4]: > 100 µM
TGI [5]: > 100 µM
TGI [6]: > 100 µM
TGI [7]: > 100 µM
TGI [8]: > 100 µM
TGI [9]: > 100 µM
TGI [10]: > 100 µM
TGI [11]: > 100 µM
TGI [12]: > 100 µM
TGI [13]: > 100 µM
TGI [14]: > 100 µM
TGI [17]: > 100 µM
TGI [18]: > 100 µM
TGI [19]: > 100 µM
TGI [21]: > 100 µM
TGI [22]: > 100 µM
TGI [23]: > 100 µM
TGI [24]: > 100 µM
TGI [25]: > 100 µM
TGI [26]: > 100 µM
TGI [27]: > 100 µM
TGI [29]: > 100 µM
TGI [30]: > 100 µM
TGI [31]: > 100 µM
TGI [32]: > 100 µM
TGI [33]: > 100 µM
TGI [34]: > 100 µM
TGI [36]: > 100 µM
TGI [38]: > 100 µM
TGI [39]: > 100 µM
TGI [40]: > 100 µM
TGI [41]: > 100 µM
TGI [42]: > 100 µM
TGI [44]: > 100 µM
TGI [45]: > 100 µM
TGI [46]: > 100 µM
TGI [47]: > 100 µM
TGI [49]: > 100 µM
TGI [51]: > 100 µM
TGI [52]: > 100 µM
TGI [54]: > 100 µM
TGI [56]: > 100 µM
TGI [57]: > 100 µM
TGI [58]: > 100 µM
TGI [59]: > 100 µM
